# In patent US20210163404A1, “NOVEL UREA COMPOUNDS AND BIOISOSTERES THEREOF AND THEIR USE FOR TREATING INFLAMMATION AND INFLAMMATION-RELATED PATHOLOGIES” (UNIVERSITÉ LAVAL, priority 2017, published 2021):
# Where “and” joins values, the source holds several entries; their conditions need not be identical. Identical values can stand only once.
# Tests used:
# [1] = system: HT-29 colon adenocarcinoma cells; assay: Antiproliferative activity (NCI procedure, sulforhodamine B), HT-29; assay type: cell-based, human; settings: Homo sapiens, HT-29, unit inferred, tested 781 nM to 100 μM, 48 h
# Description: (§1) The antiproliferative activity of compounds 3a-b, 4a-e, 5a-e and 6a-e was subsequently evaluated using the human HT-29 colon adenocarcinoma and the A549 adenocarcinoma alveolar epithelial cancer cell lines, the HaCaT spontaneously transformed aneuploid immortal keratinocyte cell line and the HDFn neonatal dermal fibroblast cell line (Table 2). Cell growth inhibition was assessed according to the NCI/NIH Developmental Therapeutics Program.
# (§2) The antiproliferative activity assay of all compounds was assessed using the procedure recommended by the National Cancer Institute for its drug screening program with minor modifications. Briefly, 96-well microtiter plates were seeded with 75 μL of a suspension of either HaCaT (5×10^3), HT-29 (3.0×10^3), A549 (3.0×10^3) or HDFn (3×10^3) cells per well in DMEM and incubated for 24 h at 37° C. in a moisture-saturated atmosphere containing 5% CO2. Compounds freshly solubilized in DMSO (40 mM) were diluted in fresh DMEM, and 75 μL aliquots containing serially diluted concentrations of the compound were added. Final compound concentrations ranged from 100 μM to 781 nM. DMSO was maintained at a concentration of <0.5% (v/v) to avoid any related cytotoxicity. Plates were subsequently incubated for 48 h. Cell growth was then stopped by the addition of cold trichloroacetic acid to the wells (10% w/v, final concentration), followed by a 1 h incubation period at 4° C. The plates were washed 4-times with water. A sulforhodamine B solution (75 μL; 0.1% w/v) in acetic acid (1%) was subsequently added to each well and the plates incubated over a 15 min period while at room temperature. After staining, any unbound dye was removed by washing 4-times with an acetic acid solution (1%). Bound dye was solubilized in 20 mM Tris base and the absorbance was measured at an optimal wavelength (530-568 nm) using a μQuant® Universal microplate spectrophotometer (BioTek, Winooski, Vt.). The measurements for treated cells were compared with measurements from control cell plates fixed on treatment day and the percentage of cell growth inhibition was calculated for each drug. The experiments were performed at least twice in triplicate. The assays were considered valid when the coefficient of variation for a given set of conditions and within the same experiment was <10%.
# [2] = system: HaCaT keratinocyte cell line; assay: Antiproliferative activity (NCI procedure, sulforhodamine B), HaCaT; assay type: cell-based, human; settings: Homo sapiens, HaCaT, unit inferred, tested 781 nM to 100 μM, 48 h
# Description: as §1, §2
# [3] = system: HDFn neonatal dermal fibroblast cell line; assay: Antiproliferative activity (NCI procedure, sulforhodamine B), HDFn; assay type: cell-based, human; settings: Homo sapiens, Fibroblast, unit inferred, tested 781 nM to 100 μM, 48 h
# Description: as §1, §2
# [4] = system: A549 adenocarcinoma alveolar epithelial cancer cells; assay: Antiproliferative activity (NCI procedure, sulforhodamine B), A549; assay type: cell-based, human; settings: Homo sapiens, A549, unit inferred, tested 781 nM to 100 μM, 48 h
# Description: as §1, §2
SMILES,melting point,IC50 ([1]; Table 5) [µM],IC50 ([2]; Table 5) [µM],IC50 ([3]; Table 5) [µM],IC50 ([4]; Table 5) [µM],also measured
CCNC(=S)Nc1ccc(C(C)(C)C)cc1 [Compound 94],109 to 115 °C,,,,,IC50 ([1]; Table 8): 92 µM; IC50 ([2]; Table 8): > 100 µM; IC50 ([3]; Table 8): 94 µM; IC50 ([4]; Table 8): 71.1 µM
CC(C)(C)c1ccc(NC(=S)NCC2CCC2)cc1 [Compound 96],129 to 146 °C,,,,,IC50 ([1]; Table 8): 44 µM; IC50 ([2]; Table 8): > 100 µM; IC50 ([3]; Table 8): > 100 µM; IC50 ([4]; Table 8): 23.3 µM
CC(C)NC(=O)Nc1ccc(C2CCCCC2)cc1 [Compound 13],163 to 170 °C,56.9,> 100,59.1,60.8,
CC(C)NC(=O)Nc1cccc(C2CCCCC2)c1 [Compound 16],178 to 181 °C,> 100,> 100,30.5,> 100,
CC(C)(C)NC(=O)Nc1cccc(I)c1 [Compound 5],189 to 193 °C,81.3,> 100,17.4,61.8,
O=C(Nc1cccc(C2CCCCC2)c1)NC1CCCC1 [Compound 69],132 to 137 °C,,,,,IC50 ([1]; Table 6): 8.9 µM; IC50 ([2]; Table 6): 4 µM; IC50 ([3]; Table 6): 7.6 µM; IC50 ([4]; Table 6): 12 µM
CC(C)(C)NC(=O)Nc1ccc(C2CCCCC2)cc1 [Compound 14],182 to 189 °C,25.5,35.4,17.2,18.5,
CC(C)(C)NC(=O)Nc1ccc(I)cc1 [Compound 2],179 to 199 °C,32.9,44.7,27.1,37.1,
S=C(Nc1ccc(C2CCCCC2)cc1)NC1CC1 [Compound 93],157 to 165 °C,,,,,IC50 ([1]; Table 8): 30.8 µM; IC50 ([2]; Table 8): 84.7 µM; IC50 ([3]; Table 8): 84 µM; IC50 ([4]; Table 8): 20.8 µM
"CC(C)(C)CNC(=O)Nc1cccc(I)c1 [Compound 43, 1-(3-Iodophenyl)-3-neopentylurea]",114 to 115 °C,,,,,
"O=C(NCC1CC1)Nc1cccc(I)c1 [Compound 37, 1-(Cyclopropylmethyl)-3-(3-iodophenyl)urea]",139 to 140 °C,,,,,
"CC(C)(C)c1cccc(NC(=O)NC2CC=CC2)c1 [Compound 50, 1-(3-(t-Butyl)phenyl)-3-(cyclopent-3-en-1-yl)urea]",135 to 137 °C,,,,,
"CC(C)(C)c1ccc(NC(=O)NC2CCC2)cc1 [Compound 29, 1-(4-(t-Butyl)phenyl)-3-cyclobutylurea]",189 to 190 °C,,,,,
"O=C(Nc1cccc(I)c1)NC1CCC1 [Compound 38, 1-Cyclobutyl-3-(3-iodophenyl)urea]",178 to 180 °C,,,,,
"CCC(CC)NC(=O)Nc1ccc(C2CCCCC2)cc1 [Compound 62, 1-(4-Cyclohexylphenyl)-3-(pentan-3-yl)urea]",174 to 176 °C,,,,,

# Continued, in another order:
melting point,SMILES,IC50 ([1]; Table 5) [µM],IC50 ([2]; Table 5) [µM],IC50 ([3]; Table 5) [µM],IC50 ([4]; Table 5) [µM],also measured
195 to 203 °C,CC(C)(C)NC(=O)Nc1cccc(C2CCCCC2)c1 [Compound 17],58.3,87.9,16.3,44.1,
154 to 162 °C,S=C(Nc1ccc(I)cc1)NC1CCCC1 [Compound 102],,,,,IC50 ([1]; Table 8): 25.1 µM; IC50 ([2]; Table 8): 39.1 µM; IC50 ([3]; Table 8): 18.6 µM; IC50 ([4]; Table 8): 25.3 µM
146 to 149 °C,CC(C)NC(=O)Nc1cccc(C(C)(C)C)c1 [Compound 10],85.2,> 100,92.4,96.8,
138 to 141 °C,CCCNC(=O)Nc1cccc(C(C)(C)C)c1 [Compound 12],> 100,> 100,81.5,> 100,
147 to 151 °C,CCCNC(=O)Nc1ccc(C(C)(C)C)cc1 [Compound 9],54.9,> 100,10.5,67.1,
142 to 152 °C,S=C(Nc1cccc(I)c1)NC1CC1 [Compound 103],,,,,IC50 ([1]; Table 8): > 100 µM; IC50 ([2]; Table 8): > 100 µM; IC50 ([3]; Table 8): > 100 µM; IC50 ([4]; Table 8): > 100 µM
153 to 156 °C,CC(C)NC(=O)Nc1cccc(I)c1 [Compound 4],> 100,94.5,59.1,80.3,
142 to 154 °C,CC(C)(C)c1ccc(NC(=S)NC2CCCC2)cc1 [Compound 97],,,,,IC50 ([1]; Table 8): 28.8 µM; IC50 ([2]; Table 8): 40 µM; IC50 ([3]; Table 8): 22.6 µM; IC50 ([4]; Table 8): 26.2 µM
161 to 170 °C,CC(C)(C)NC(=O)Nc1cccc(C(C)(C)C)c1 [Compound 11],34.9,46.5,13.1,36.7,
129 to 142 °C,S=C(Nc1cccc(C2CCCCC2)c1)NC1CCCC1 [Compound 107],,,,,IC50 ([1]; Table 8): 5.7 µM; IC50 ([2]; Table 8): 7.9 µM; IC50 ([3]; Table 8): 3.8 µM; IC50 ([4]; Table 8): 6.2 µM
98 to 108 °C,S=C(NCC1CCC1)Nc1ccc(I)cc1 [Compound 92],,,,,IC50 ([1]; Table 8): 27.2 µM; IC50 ([2]; Table 8): 48.2 µM; IC50 ([3]; Table 8): 24.2 µM; IC50 ([4]; Table 8): 26.2 µM
136 to 147 °C,S=C(NCC1CCC1)Nc1cccc(I)c1 [Compound 99],,,,,IC50 ([1]; Table 8): 27 µM; IC50 ([2]; Table 8): 35.5 µM; IC50 ([3]; Table 8): 19.4 µM; IC50 ([4]; Table 8): 26.2 µM
142 to 144 °C,O=C(NCC1CCCC1)Nc1ccc(C2CCCCC2)cc1 [Compound 59],,,,,
192 to 194 °C,"O=C(NCC1CC1)Nc1ccc(I)cc1 [Compound 21, 1-(Cyclopropylmethyl)-3-(4-iodophenyl)urea]",,,,,
208 to 210 °C,"O=C(Nc1ccc(I)cc1)NC1CCC1 [Compound 22, 1-Cyclobutyl-3-(4-iodophenyl)urea]",,,,,
174 to 176 °C,"CCC(CC)NC(=O)Nc1ccc(I)cc1 [Compound 64, 1-(4-Iodophenyl)-3-(pentan-3-yl)urea]",,,,,
158 to 161 °C and 158 to 162 °C,"O=C(NCC1CCCC1)Nc1ccc(I)cc1 [Compound 25, 1-(Cyclopentylmethyl)-3-(4-iodophenyl)urea]",,,,,
